Values of other authors in patent publication US20180243418A1, “SYSTEMS AND METHODS FOR TARGETED CANCER THERAPIES” (American University of Sharjah, priority 2017, published 2018).

Tests used:
VX2 carcinoma cells = settings: rabbits implanted with VX2 carcinoma cells, intravenous
[1] = system: human and mice melanoma cells; settings: melanoma cells treated for about 8 hours

Q: With `COc1cccc2c1C(=O)c1c(O)c3c(c(O)c1C2=O)C[C@@](O)(C(=O)CO)C[C@@H]3O[C@H]1C[C@H](N)[C@H](O)[C@H](C)O1` [free Dox, doxorubicin] as the compound, how does the “concentration of Dox in tumors” value (VX2 carcinoma cells) read?
A: about 4.0±1.0 μg Dox/g tissues

Q: And the “accumulation in the nucleus, of the initial amount” value [1]?
A: about 26%

Q: And the “initial concentration detected in the cell cytoplasm” value [1]?
A: about 0.5%
